Source: patent US20250228950A1 (priority 2017, published 2025)

Assays:
EMT-6 cells = assay: EMT-6 cytotoxicity at pH 6.2 vs pH 7.4; assay type: cell-based
[1] = test system: MDA-MB-231 breast cancer cells; assay: MDA-MB-231 cell growth inhibition / cytotoxicity assay, incl. pH 6.2 vs pH 7.4; conditions: for pH-dependent cytotoxicity / cell growth inhibitory activity: MDA-MB-231 cells; for pH-dependent cytotoxicity: pH 6.2 over pH 7.4; for cell growth inhibitory activity: FIG. 3 legend; for IC50: Homo sapiens

With `O=C(Nc1ccc(N(CCCl)CCCl)cc1)OCCSSCCCc1c(F)c(F)c(O)c(F)c1F` [YU252353] the IC50 (EMT-6 cells; Mus musculus, EMT6, tumor pH 6.2) was 28.7 µM, the “toxicity in this assay” value (EMT-6 cells; normal physiological pH 7.4) was “no detectable toxicity” and the pH-dependent cytotoxicity [1] was “preferential cytotoxicity in acidic conditions”.
For `O=P1(N(CCCl)CCCl)NCCCO1` (centres unmarked) [Cyclophosphamide, reference compound], the “cell growth inhibitory activity” value [1] was “remains inactive”.
For `NP(=O)(OCCSSCCCc1c(F)c(F)c(O)c(F)c1F)N(CCCl)CCCl` (centres unmarked) [YU252213], the IC50 ([1]; MDA-MB-231, pH 6.2) was 41.4 µM, the IC50 ([1]; MDA-MB-231, pH 7.4) was greater than 100 µM and the “cell growth inhibitory activity” value [1] was “shows cell growth inhibitory activity”. The pH-dependent cytotoxicity [1] was “preferential cytotoxicity in acidic conditions”.
